Experimental data published in PubChem BioAssay AID1918940 (Molecular Pharmacology Branch, DTP, NCI, 2023).
pIC50: −log10 of the molar value. “And” between values parts separate entries of the source, which are not always exact repeats. Identical values can stand only once.

Test system: NCI-H211 complex spheroid viability
Assay: Anticancer human tumor NCI-H211 cell line growth inhibition [LSD1];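 further: luminescent viability read after seven days of drug exposure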;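 on viability, T/C: 100% = DMSO vehicle control viability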
Settings: for viability, T/C: stronger effect = lower value
How it was run: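 Multicellular complex spheroids of tumor cells with human endothelial cells (HUVEC) and mesenchymal stem cells; the LSD1 inhibitor iadademstat was combined with standard-of-care or investigational agents. Top concentration at or near clinical Cmax, half-log dilutions; final DMSO ≤0.25%.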

[1] = curve of first compound, second compound 0.1 µM
[2] = curve of first compound, second compound 0.316 µM
[3] = curve of first compound, second compound 1 µM
[4] = curve of first compound, second compound 3.16 µM
[5] = curve of first compound, second compound 10 µM
[6] = second compound 0.1 µM, first compound 0.00316 µM
[7] = second compound 0.1 µM, first compound 0.01 µM
[8] = second compound 0.1 µM, first compound 0.0316 µM
[9] = second compound 0.1 µM, first compound 0.1 µM
[10] = second compound 0.316 µM, first compound 0.00316 µM
[11] = second compound 0.316 µM, first compound 0.01 µM
[12] = second compound 0.316 µM, first compound 0.0316 µM
[13] = second compound 0.316 µM, first compound 0.1 µM
[14] = second compound 1 µM, first compound 0.00316 µM
[15] = second compound 1 µM, first compound 0.01 µM
[16] = second compound 1 µM, first compound 0.0316 µM
[17] = second compound 1 µM, first compound 0.1 µM
[18] = second compound 3.16 µM, first compound 0.00316 µM
[19] = second compound 3.16 µM, first compound 0.01 µM
[20] = second compound 3.16 µM, first compound 0.0316 µM
[21] = second compound 3.16 µM, first compound 0.1 µM
[22] = second compound 10 µM, first compound 0.00316 µM
[23] = second compound 10 µM, first compound 0.01 µM
[24] = second compound 10 µM, first compound 0.0316 µM
[25] = second compound 10 µM, first compound 0.1 µM

For `Nc1ncn(C2CC(O)C(CO)O2)c(=O)n1` (configuration not stated) + NC1CCC(NC2CC2c2ccccc2)CC1, the pIC50 [1] was greater than 8.50, the pIC50 [2] was greater than 8.50 and the pIC50 [3] was greater than 8.50. It also gave a pIC50 [4] greater than 8.50, a pIC50 [5] greater than 8.50 and a viability, T/C [6] of 26.7%. It also gave a viability, T/C [7] of 17.8%, a viability, T/C [8] of 7.44% and a viability, T/C [9] of 3.11%. The viability, T/C (second compound 0.1 µM, first compound 0.316 µM) was 1.96%, the viability, T/C (second compound 0.1 µM, first compound 1 µM) was 1.81% and the viability, T/C [10] was 35%. It also gave a viability, T/C [11] of 16%, a viability, T/C [12] of 9.7% and a viability, T/C [13] of 2.44%. It also gave a viability, T/C (second compound 0.316 µM, first compound 0.316 µM) of 1.9%, a viability, T/C (second compound 0.316 µM, first compound 1 µM) of 1.78% and a viability, T/C [14] of 33%. It also gave a viability, T/C [15] of 16.2%, a viability, T/C [16] of 7.52% and a viability, T/C [17] of 3.4%. For the same compound, the viability, T/C (second compound 1 µM, first compound 0.316 µM) was 1.88%, the viability, T/C (second compound 1 µM, first compound 1 µM) was 1.32% and the viability, T/C [18] was 29.3%. The viability, T/C [19] was 17.8%, the viability, T/C [20] was 6.93% and the viability, T/C [21] was 2.47%. The viability, T/C (second compound 3.16 µM, first compound 0.316 µM) was 1.82%, the viability, T/C (second compound 3.16 µM, first compound 1 µM) was 1.39% and the viability, T/C [22] was 11.7%. The viability, T/C [23] was 5.2%, the viability, T/C [24] was 2.56% and the viability, T/C [25] was 0.89%. The viability, T/C (second compound 10 µM, first compound 0.316 µM) was 0.77% and the viability, T/C (second compound 10 µM, first compound 1 µM) was 0.61%.
`COc1cc(C2c3cc4c(cc3C(OC3OC5COC(C)OC5C(O)C3O)C3COC(=O)C23)OCO4)cc(OC)c1O` (configuration not stated) + NC1CC1c1ccc(-c2cccc(O)c2)cc1 was tested, and the pIC50 [1] was greater than 8.02, the pIC50 [2] was greater than 8.02 and the pIC50 [3] was greater than 8.02. It also gave a pIC50 [4] greater than 8.02, a pIC50 [5] greater than 8.02 and a viability, T/C (second compound 0.1 µM, first compound 0.00949 µM) of 43.9%. It also gave a viability, T/C (second compound 0.1 µM, first compound 0.03 µM) of 11.5%, a viability, T/C (second compound 0.1 µM, first compound 0.0949 µM) of 4.34% and a viability, T/C (second compound 0.1 µM, first compound 0.3 µM) of 5.07%. It also gave a viability, T/C (second compound 0.1 µM, first compound 0.949 µM) of 5.27%, a viability, T/C (second compound 0.1 µM, first compound 3 µM) of 4.24% and a viability, T/C (second compound 0.316 µM, first compound 0.00949 µM) of 38.7%. The viability, T/C (second compound 0.316 µM, first compound 0.03 µM) was 11.5%, the viability, T/C (second compound 0.316 µM, first compound 0.0949 µM) was 4.54% and the viability, T/C (second compound 0.316 µM, first compound 0.3 µM) was 4.97%. For the same compound, the viability, T/C (second compound 0.316 µM, first compound 0.949 µM) was 4.77%, the viability, T/C (second compound 0.316 µM, first compound 3 µM) was 4.76% and the viability, T/C (second compound 1 µM, first compound 0.00949 µM) was 35.6%. It also gave a viability, T/C (second compound 1 µM, first compound 0.03 µM) of 10.3%, a viability, T/C (second compound 1 µM, first compound 0.0949 µM) of 6.12% and a viability, T/C (second compound 1 µM, first compound 0.3 µM) of 4.33%. The viability, T/C (second compound 1 µM, first compound 0.949 µM) was 3.45%, the viability, T/C (second compound 1 µM, first compound 3 µM) was 4.65% and the viability, T/C (second compound 3.16 µM, first compound 0.00949 µM) was 29.2%. For the same compound, the viability, T/C (second compound 3.16 µM, first compound 0.03 µM) was 7.68%, the viability, T/C (second compound 3.16 µM, first compound 0.0949 µM) was 5.57% and the viability, T/C (second compound 3.16 µM, first compound 0.3 µM) was 5.22%. For the same compound, the viability, T/C (second compound 3.16 µM, first compound 0.949 µM) was 5.76%, the viability, T/C (second compound 3.16 µM, first compound 3 µM) was 3.92% and the viability, T/C (second compound 10 µM, first compound 0.00949 µM) was 24.8%. It also gave a viability, T/C (second compound 10 µM, first compound 0.03 µM) of 9.09%, a viability, T/C (second compound 10 µM, first compound 0.0949 µM) of 5.19% and a viability, T/C (second compound 10 µM, first compound 0.3 µM) of 4.7%. The viability, T/C (second compound 10 µM, first compound 0.949 µM) was 5% and the viability, T/C (second compound 10 µM, first compound 3 µM) was 4.52%.
In the case of `CC1COCCN1c1cc(-c2ccnn2C)c2ccnc(-c3ccn[nH]3)c2n1` (configuration not stated), the viability, T/C (compound 0.00316 µM) was 68.4% and 38.3%, the viability, T/C (compound 0.01 µM) was 21.5% and 14% and the viability, T/C (compound 0.0316 µM) was 4.05% and 7.88%. The viability, T/C (compound 0.1 µM) was 2.34% and 6.02%, the viability, T/C (compound 0.316 µM) was 2.16% and 5.04% and the viability, T/C (compound 1 µM) was 2.28% and 5.77%. For the same compound, the pIC50 (curve of compound) was 8.30 and > 8.50.
In the case of `CC(C)CC(NC(=O)CNC(=O)c1cc(Cl)ccc1Cl)B1OC(=O)CC(CC(=O)O)(C(=O)O)O1` (configuration not stated) + NC1CCC(NC2CC2c2ccccc2)CC1, the pIC50 [1] was 7.81, the pIC50 [2] was 7.74 and the pIC50 [3] was 7.82. The pIC50 [4] was 7.93, the pIC50 [5] was greater than 9.50 and the viability, T/C (second compound 0.1 µM, first compound 0.000316 µM) was 81.6%. The viability, T/C (second compound 0.1 µM, first compound 0.001 µM) was 90.2%, the viability, T/C [6] was 103% and the viability, T/C [7] was 65.1%. The viability, T/C [8] was 22.5%, the viability, T/C [9] was 7.53% and the viability, T/C (second compound 0.316 µM, first compound 0.000316 µM) was 81.5%. It also gave a viability, T/C (second compound 0.316 µM, first compound 0.001 µM) of 93.3%, a viability, T/C [10] of 111% and a viability, T/C [11] of 76.9%. It also gave a viability, T/C [12] of 23.5%, a viability, T/C [13] of 7.18% and a viability, T/C (second compound 1 µM, first compound 0.000316 µM) of 79.3%. For the same compound, the viability, T/C (second compound 1 µM, first compound 0.001 µM) was 85%, the viability, T/C [14] was 109% and the viability, T/C [15] was 65.3%. For the same compound, the viability, T/C [16] was 21.4%, the viability, T/C [17] was 6.25% and the viability, T/C (second compound 3.16 µM, first compound 0.000316 µM) was 59.8%. The viability, T/C (second compound 3.16 µM, first compound 0.001 µM) was 65%, the viability, T/C [18] was 95.6% and the viability, T/C [19] was 53%. The viability, T/C [20] was 18.1%, the viability, T/C [21] was 5.75% and the viability, T/C (second compound 10 µM, first compound 0.000316 µM) was 44.9%. The viability, T/C (second compound 10 µM, first compound 0.001 µM) was 37.5%, the viability, T/C [22] was 51.2% and the viability, T/C [23] was 35.5%. The viability, T/C [24] was 12% and the viability, T/C [25] was 2.35%.
